Twelve molecules from ChEMBL document CHEMBL5143750, “Bisubstrate Inhibitors of Severe Acute Respiratory Syndrome Coronavirus-2 Nsp14 Methyltransferase” (ACS Med Chem Lett, 2022) can be followed below.

SMILES strings stand for the structures.

One data set deals with SARS-CoV-2. As to the kind of experiment: Antiviral activity against SARS-CoV-2 infected in human A549 cells overexpressing ACE2 and TMPRSS2 assessed as reduction in viral growth incubated for 48 hrs by DAPI staining based immunofluorescence assay. In kind it is functional, organism-based. As to conditions: Severe acute respiratory syndrome coronavirus 2, A549, 48 h.
As for `CC(=O)O[C@@H]1[C@H](OC(C)=O)[C@@H](CNS(=O)(=O)c2ccc3ccccc3c2)O[C@H]1c1ccc2c(N)ncnn12`, the EC50 is 4.3 µM.
For the molecule `Nc1ncnn2c([C@@H]3O[C@H](CNS(=O)(=O)c4ccc5ccccc5c4)[C@@H](O)[C@H]3O)ccc12`, the concentration giving a half-maximal response (EC50) came out at 0.72 µM.
Take `CC(=O)O[C@@H]1[C@H](OC(C)=O)[C@@H](CNS(=O)(=O)c2ccc3ccccc3c2)O[C@H]1n1cnc2c(N)ncnc21`: the EC50 was found to be 53 µM.
As for `CC(C)C(=O)O[C@@H]1[C@H](OC(=O)C(C)C)[C@@H](CNS(=O)(=O)c2ccc3ccccc3c2)O[C@H]1n1cnc2c(N)ncnc21`, the EC50 stood at 97 µM.
Still for that read-out and setting: the result for `CC(=O)Nc1ncnc2c1ncn2[C@@H]1O[C@H](CNS(=O)(=O)c2ccc3ccccc3c2)[C@@H](OC(C)=O)[C@H]1OC(C)=O` reads 61 µM.

Tested on in the next data set: not listed separately
In words: Therapeutic index, ratio of CC50 for cytotoxicity against human A549 cells overexpressing ACE2 and TMPRSS2 to EC50 for antiviral activity against SARS-CoV-2 infected in human A549 cells overexpressing ACE2 and TMPRSS2 assessed as reduction in viral growth. It is filed as toxicity, cell-based. Conditions: read-out: Ratio CC50/EC50.
As to `Nc1ncnn2c([C@@H]3O[C@H](CNS(=O)(=O)c4ccc5ccccc5c4)[C@@H](O)[C@H]3O)ccc12`, the selectivity ratio was above 139.

The next data set has as its system SARS-CoV-2. In words: Antiviral activity against SARS-CoV-2 infected in human A549 cells overexpressing ACE2 and TMPRSS2 assessed as inhibition of viral growth at 50 uM incubated for 48 hrs by DAPI staining based immunofluorescence assay. In kind it is functional. Conditions: Severe acute respiratory syndrome coronavirus 2, A549.
As for `Nc1ncnc2c1ncn2[C@@H]1O[C@H](CNCc2ccc3ccccc3c2)[C@@H](O)[C@H]1O`, the inhibition at 50 µM was below 15%.
The same measure, in the same setting: the result for `Nc1ncnc2c1ncn2[C@@H]1O[C@H](CNC(=O)c2ccc3ccccc3c2)[C@@H](O)[C@H]1O` reads below 15%.
Still for that read-out and setting: the figure for `Nc1ncnc2c1ncn2[C@@H]1O[C@H](CNS(=O)(=O)c2ccc3cccnc3c2)[C@@H](O)[C@H]1O` is below 15%; for `Nc1ncnc2c1ncn2[C@@H]1O[C@H](C[C@@H](N)CC[C@H](N)C(=O)O)[C@@H](O)[C@H]1O` [SINEFUNGIN] it is below 15%; for `CC(=O)Nc1ncnc2c1ncn2[C@@H]1O[C@H](CNS(=O)(=O)c2ccc3ccccc3c2)[C@@H](O)[C@H]1O` it is below 15%.
On the same count and under the same terms, the result for `Nc1ncnc2c1ncn2[C@@H]1O[C@H](CNS(=O)(=O)c2ccc3ccccc3c2)[C@@H](O)[C@H]1O` reads below 15%; that for `Nc1ncnc2c1ncn2[C@@H]1O[C@H](CNS(=O)(=O)c2ccc3nc(Cl)ccc3c2)[C@@H](O)[C@H]1O`, below 15%.
